Results reported in PubChem BioAssay (NCI).
Values joined by “and” are separate entries in the source; they are usually repeats but may differ in a detail not shown here. Equal entries are not always repeated.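 Briefly, cells in 96-well plates were exposed to five compound concentrations for 48 h, and endpoints were estimated by linear interpolation. GI50 = concentration required for 50% inhibition of growth. Definition used: TGI = concentration required for complete inhibition of growth.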

How the values were obtained:
Assay in all cases: inhibition of tumour cell growth, NCI panel, 48 h
MCF7 breast = tested on: MCF7 breast
HOP-92 NSCLC = tested on: HOP-92 NSCLC
HT29 colon = tested on: HT29 colon
SK-MEL-5 melanoma = tested on: SK-MEL-5 melanoma
HOP-62 NSCLC = tested on: HOP-62 NSCLC
HCC-2998 colon = tested on: HCC-2998 colon
OVCAR-3 ovarian = tested on: OVCAR-3 ovarian
HCT-116 colon = tested on: HCT-116 colon
NCI-H522 lung = tested on: NCI-H522 lung
OVCAR-8 ovarian = tested on: OVCAR-8 ovarian
M14 melanoma = tested on: M14 melanoma
OVCAR-5 ovarian = tested on: OVCAR-5 ovarian
U251 CNS = tested on: U251 CNS
SK-MEL-2 melanoma = tested on: SK-MEL-2 melanoma
KM12 colon = tested on: KM12 colon
NCI-H23 lung = tested on: NCI-H23 lung
A498 renal = tested on: A498 renal
HL-60(TB) leukemia = tested on: HL-60(TB) leukemia
PC-3 prostate = tested on: PC-3 prostate
CAKI-1 renal = tested on: CAKI-1 renal
NCI-H460 lung = tested on: NCI-H460 lung
MDA-N = tested on: MDA-N
RXF 393 renal = tested on: RXF 393 renal
EKVX NSCLC = tested on: EKVX NSCLC
SN12C renal = tested on: SN12C renal
786-0 renal = tested on: 786-0 renal
K-562 leukemia = tested on: K-562 leukemia
T-47D breast = tested on: T-47D breast
MDA-MB-231 breast = tested on: MDA-MB-231 breast
TK-10 renal = tested on: TK-10 renal
SF-268 CNS = tested on: SF-268 CNS
BT-549 breast = tested on: BT-549 breast
SK-OV-3 ovarian = tested on: SK-OV-3 ovarian
LOX IMVI melanoma = tested on: LOX IMVI melanoma
IGROV1 ovarian = tested on: IGROV1 ovarian
SF-295 CNS = tested on: SF-295 CNS
UO-31 renal = tested on: UO-31 renal
NCI/ADR-RES ovarian = tested on: NCI/ADR-RES ovarian
COLO 205 colon = tested on: COLO 205 colon
UACC-62 melanoma = tested on: UACC-62 melanoma
RPMI-8226 leukemia = tested on: RPMI-8226 leukemia
CCRF-CEM leukemia = tested on: CCRF-CEM leukemia
HS 578T breast = tested on: HS 578T breast
NCI-H226 lung = tested on: NCI-H226 lung
MOLT-4 leukemia = tested on: MOLT-4 leukemia
UACC-257 melanoma = tested on: UACC-257 melanoma
SNB-19 CNS = tested on: SNB-19 CNS
SF-539 CNS = tested on: SF-539 CNS
HCT-15 colon = tested on: HCT-15 colon
ACHN renal = tested on: ACHN renal
A549 NSCLC = tested on: A549 NSCLC
SK-MEL-28 melanoma = tested on: SK-MEL-28 melanoma
OVCAR-4 ovarian = tested on: OVCAR-4 ovarian
SNB-75 CNS = tested on: SNB-75 CNS
MDA-MB-435 = tested on: MDA-MB-435
SR leukemia = tested on: SR leukemia
DU-145 prostate = tested on: DU-145 prostate
SW-620 colon = tested on: SW-620 colon
MALME-3M melanoma = tested on: MALME-3M melanoma
DMS 273 small cell lung = tested on: DMS 273 small cell lung
DMS 114 small cell lung = tested on: DMS 114 small cell lung
LXFL 529 NSCLC = tested on: LXFL 529 NSCLC
M19-MEL melanoma = tested on: M19-MEL melanoma

## Cc1cc(=O)oc2cc(OC(=O)Nc3ccc(Cl)c(Cl)c3)ccc12
MCF7 breast
  TGI: > 100 µM
HOP-92 NSCLC
  TGI: 43.4 µM
HT29 colon
  TGI: 75.4 µM
SK-MEL-5 melanoma
  TGI: 29.7 µM
HOP-62 NSCLC
  TGI: 63.2 µM
HCC-2998 colon
  TGI: 41 µM
OVCAR-3 ovarian
  TGI: 50.2 µM
HCT-116 colon
  TGI: 40.7 µM
NCI-H522 lung
  TGI: 54.4 µM
OVCAR-8 ovarian
  TGI: 54.8 µM
M14 melanoma
  TGI: 50.9 µM
OVCAR-5 ovarian
  TGI: 61.9 µM
U251 CNS
  TGI: 56.8 µM
SK-MEL-2 melanoma
  TGI: 56.1 µM
KM12 colon
  TGI: 84 µM
NCI-H23 lung
  TGI: 53 µM
A498 renal
  TGI: 32.6 µM
HL-60(TB) leukemia
  TGI: 41.9 µM
PC-3 prostate
  TGI: 68.2 µM
CAKI-1 renal
  TGI: 86.4 µM
NCI-H460 lung
  TGI: 89.6 µM
MDA-N
  TGI: 54.7 µM
RXF 393 renal
  TGI: 52.3 µM
EKVX NSCLC
  TGI: 85.2 µM
SN12C renal
  TGI: 70.9 µM
786-0 renal
  TGI: > 100 µM
K-562 leukemia
  TGI: 28.2 µM
T-47D breast
  TGI: 68.3 µM
MDA-MB-231 breast
  TGI: 58 µM
TK-10 renal
  TGI: > 100 µM
SF-268 CNS
  TGI: > 100 µM
BT-549 breast
  TGI: 61.5 µM
SK-OV-3 ovarian
  TGI: 88.4 µM
LOX IMVI melanoma
  TGI: 37.2 µM
IGROV1 ovarian
  TGI: 60.5 µM
SF-295 CNS
  TGI: 74.4 µM
UO-31 renal
  TGI: 72.7 µM
NCI/ADR-RES ovarian
  TGI: > 100 µM
COLO 205 colon
  TGI: 96.5 µM
UACC-62 melanoma
  TGI: 35.1 µM
RPMI-8226 leukemia
  TGI: 36.2 µM
CCRF-CEM leukemia
  TGI: 51.6 µM
HS 578T breast
  TGI: 66.4 µM
NCI-H226 lung
  TGI: 46.6 µM
MOLT-4 leukemia
  TGI: 44.4 µM
UACC-257 melanoma
  TGI: 84.2 µM
SNB-19 CNS
  TGI: 77.2 µM
SF-539 CNS
  TGI: 38.5 µM
HCT-15 colon
  TGI: > 100 µM
ACHN renal
  TGI: 78.1 µM
A549 NSCLC
  TGI: 82.1 µM
SK-MEL-28 melanoma
  TGI: 67.3 µM
OVCAR-4 ovarian
  TGI: > 100 µM
SNB-75 CNS
  TGI: 67.3 µM
MDA-MB-435
  TGI: 41.2 µM
SR leukemia
  TGI: 46.3 µM
DU-145 prostate
  TGI: 90.5 µM
SW-620 colon
  TGI: 48.1 µM
MALME-3M melanoma
  TGI: 51.8 µM

## O=C1CC(Br)c2c(Cl)sc(Cl)c21 (stereo unspecified)
MCF7 breast
  TGI: 13.8 µM
HOP-92 NSCLC
  TGI: 29.6 µM
HT29 colon
  TGI: 41.7 µM
SK-MEL-5 melanoma
  TGI: 41.9 µM
HOP-62 NSCLC
  TGI: 19.1 µM
HCC-2998 colon
  TGI: 24.4 µM
OVCAR-3 ovarian
  TGI: 6.32 µM
HCT-116 colon
  TGI: 16.9 µM
NCI-H522 lung
  TGI: 37.3 µM
OVCAR-8 ovarian
  TGI: 10.4 µM
M14 melanoma
  TGI: 26.5 µM
OVCAR-5 ovarian
  TGI: 36.3 µM
U251 CNS
  TGI: 10.4 µM
SK-MEL-2 melanoma
  TGI: 32.3 µM
KM12 colon
  TGI: 20.2 µM
NCI-H23 lung
  TGI: 39.1 µM
A498 renal
  TGI: 38.4 µM
HL-60(TB) leukemia
  TGI: 6.9 µM
PC-3 prostate
  TGI: 23.4 µM
CAKI-1 renal
  TGI: 9.79 µM
NCI-H460 lung
  TGI: 34.8 µM
MDA-N
  TGI: 12.2 µM
RXF 393 renal
  TGI: 4.91 µM
EKVX NSCLC
  TGI: 48.2 µM
SN12C renal
  TGI: 30.6 µM
786-0 renal
  TGI: 8.91 µM
K-562 leukemia
  TGI: 13.7 µM
T-47D breast
  TGI: 16 µM
MDA-MB-231 breast
  TGI: 22.7 µM
TK-10 renal
  TGI: 7.3 µM
SF-268 CNS
  TGI: 26.6 µM
BT-549 breast
  TGI: 61.4 µM
SK-OV-3 ovarian
  TGI: 30.4 µM
LOX IMVI melanoma
  TGI: 4.4 µM
IGROV1 ovarian
  TGI: 24.7 µM
SF-295 CNS
  TGI: 30.2 µM
UO-31 renal
  TGI: 15.7 µM
NCI/ADR-RES ovarian
  TGI: 90.1 µM
COLO 205 colon
  TGI: 28.6 µM
UACC-62 melanoma
  TGI: 25.1 µM
RPMI-8226 leukemia
  TGI: 6.45 µM
CCRF-CEM leukemia
  TGI: 2.15 µM
HS 578T breast
  TGI: 47 µM
MOLT-4 leukemia
  TGI: 5.54 µM
UACC-257 melanoma
  TGI: 15 µM
SNB-19 CNS
  TGI: 37.8 µM
SF-539 CNS
  TGI: > 100 µM
HCT-15 colon
  TGI: 28.1 µM
ACHN renal
  TGI: 24.6 µM
A549 NSCLC
  TGI: 45.4 µM
SK-MEL-28 melanoma
  TGI: 30.3 µM
SNB-75 CNS
  TGI: 30.5 µM
MDA-MB-435
  TGI: 7.38 µM
SR leukemia
  TGI: 32.2 µM
DU-145 prostate
  TGI: 31.3 µM
SW-620 colon
  TGI: 5.43 µM
MALME-3M melanoma
  TGI: 25.6 µM

## CC[C@@]1(O)C(=O)OCc2c1cc1n(c2=O)Cc2cc3cc(OC)ccc3nc2-1
MCF7 breast
  TGI: 0.196 µM
HOP-92 NSCLC
  GI50: 0.0251 µM
  TGI: 0.084 µM and 0.41 µM
HT29 colon
  GI50: 0.0864 µM
  TGI: 0.238 µM
SK-MEL-5 melanoma
  TGI: 0.116 µM and 0.0278 µM
DMS 273 small cell lung
  TGI: 1.58 µM
HOP-62 NSCLC
  TGI: 0.948 µM
DMS 114 small cell lung
  TGI: 1.02 µM
HCC-2998 colon
  GI50: 0.147 µM and 0.0656 µM
  TGI: 0.29 µM and 1.09 µM and 0.388 µM
OVCAR-3 ovarian
  GI50: 0.367 µM and 0.747 µM
  TGI: 5.73 µM and 4.54 µM
HCT-116 colon
  GI50: 0.0442 µM
  TGI: 0.573 µM and 0.481 µM
NCI-H522 lung
  TGI: 0.437 µM and 1.99 µM
OVCAR-8 ovarian
  GI50: 0.0153 µM and 0.0239 µM
  TGI: 0.297 µM and 0.35 µM
M14 melanoma
  GI50: 0.127 µM
OVCAR-5 ovarian
  GI50: 0.643 µM
  TGI: 0.562 µM
U251 CNS
  TGI: 0.0541 µM
SK-MEL-2 melanoma
  TGI: 0.529 µM
KM12 colon
  GI50: 0.273 µM
  TGI: 2.58 µM and 1.54 µM
NCI-H23 lung
  GI50: 0.0273 µM
A498 renal
  GI50: 0.0272 µM
  TGI: 1.8 µM and 0.307 µM
HL-60(TB) leukemia
  GI50: 0.00873 µM
  TGI: 0.0172 µM
CAKI-1 renal
  TGI: 0.0908 µM
NCI-H460 lung
  GI50: 0.00433 µM
  TGI: 0.152 µM and 0.211 µM and 0.188 µM
MDA-N
  TGI: 1.04 µM
RXF 393 renal
  GI50: 0.101 µM
  TGI: 0.0828 µM and 0.561 µM
EKVX NSCLC
  GI50: 1.1 µM
  TGI: > 100 µM
786-0 renal
  GI50: 0.0159 µM
K-562 leukemia
  GI50: 0.0571 µM and 0.0344 µM
  TGI: > 100 µM
T-47D breast
  GI50: 0.0185 µM
MDA-MB-231 breast
  GI50: 0.735 µM
SF-268 CNS
  GI50: 0.017 µM
LOX IMVI melanoma
  GI50: 0.0125 µM
  TGI: 0.173 µM and 0.298 µM and 0.105 µM
IGROV1 ovarian
  TGI: 0.945 µM
SF-295 CNS
  TGI: 0.0933 µM and 0.8 µM
UO-31 renal
  GI50: 0.249 µM
NCI/ADR-RES ovarian
  GI50: 0.0204 µM
  TGI: 0.169 µM
COLO 205 colon
  GI50: 0.419 µM and 0.143 µM
RPMI-8226 leukemia
  GI50: 0.0411 µM
  TGI: 8.46 µM and 1.23 µM
LXFL 529 NSCLC
  TGI: 2.51 µM
CCRF-CEM leukemia
  GI50: 0.00232 µM
NCI-H226 lung
  TGI: 0.063 µM and 0.0968 µM and 0.0206 µM
MOLT-4 leukemia
  GI50: 0.0038 µM
  TGI: 0.0289 µM
UACC-257 melanoma
  GI50: 0.0998 µM and 0.17 µM
  TGI: 1.54 µM
SNB-19 CNS
  TGI: 4.19 µM
SF-539 CNS
  TGI: 0.0361 µM and 0.0962 µM
HCT-15 colon
  GI50: 0.223 µM
  TGI: 8.12 µM
A549 NSCLC
  GI50: 0.0672 µM and 0.0109 µM
  TGI: 2.92 µM
SK-MEL-28 melanoma
  GI50: 0.894 µM
OVCAR-4 ovarian
  GI50: 0.682 µM
SNB-75 CNS
  TGI: 0.0491 µM
MDA-MB-435
  GI50: 0.117 µM
  TGI: 0.247 µM and 0.333 µM
SR leukemia
  GI50: 0.00461 µM
DU-145 prostate
  GI50: 0.0219 µM
  TGI: 0.041 µM
SW-620 colon
  GI50: 0.0391 µM
  TGI: 4.79 µM
M19-MEL melanoma
  TGI: 1.48 µM
MALME-3M melanoma
  GI50: 0.0257 µM
  TGI: 0.548 µM
